Laboratory results as given in patent US20260184714A1, “SMALL MOLECULE MODULATORS OF PAR2 AND USES THEREOF” (PARMEDICS, INC., priority 2022, published 2026).
Like-named read-outs stand apart in the source and are kept apart here.

Key:
[1] = target: T1, protease-activated receptor-2 (PAR2) (Homo sapiens, UniProt P55085); assay: xCELLigence real time cellular analysis (RTCA) of PAR2 antagonism; type: cell-based; details: 16HBE14o- cells; 5 min pre-incubation with 300 nM-10 μM compound, then 300 nM 2AT or 30 nM trypsin; high concentrations
T1 construct: a human bronchial epithelial cell line that naturally expressed PAR2; endogenous in cells; host or cells: 16HBE14o- human bronchial epithelial cells
T1 sequence (P55085 26-397): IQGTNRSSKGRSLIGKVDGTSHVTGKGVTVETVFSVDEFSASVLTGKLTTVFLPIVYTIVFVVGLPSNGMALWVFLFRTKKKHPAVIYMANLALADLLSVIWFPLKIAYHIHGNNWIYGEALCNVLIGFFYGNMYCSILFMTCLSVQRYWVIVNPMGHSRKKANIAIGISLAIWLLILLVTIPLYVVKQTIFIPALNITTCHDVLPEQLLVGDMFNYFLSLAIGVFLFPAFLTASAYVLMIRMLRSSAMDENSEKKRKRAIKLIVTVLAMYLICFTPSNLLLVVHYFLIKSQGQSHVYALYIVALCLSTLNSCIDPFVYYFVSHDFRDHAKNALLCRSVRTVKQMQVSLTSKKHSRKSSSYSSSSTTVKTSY
Procedure: (§1) Compound I-1 (labelled as “C I-1” in FIGS. 1A-1D) was evaluated for its ability to antagonize protease-activated receptor-2 (PAR2) in several cellular assays using a human bronchial epithelial cell line that naturally expressed PAR2 (16HBE14o− cells; see FIG. 1A-1D).
In the first assay to detect an in vitro physiological response, the xCELLigence real time cellular analysis (RTCA) was used.
Following overnight growth, varying concentrations of Compound I-1 was added to individual wells (in quadruplicate) in final concentrations of 300 nM, 1 μM, 3 μM and 10 μM. […] The upward deflection and recovery of the Cell Index shown in response to control 300 nM 2AT (FIG. 1A) or 30 nM (FIG. 1B) represents a typical EC50 response.

[2] = target: T1, protease-activated receptor-2 (PAR2); assay: Digital imaging microscopy of intracellular Ca2+ changes (Gq/Ca2+ signaling); type: cell-based; details: 16HBE14o- cells; [Ca2+]i by digital imaging microscopy
Procedure: as §1
(§2) It is known that two primary signaling outcomes of PAR2 activation are the initiation of Gq/Ca^2+ and β-arrestin/MAPK signaling. To determine whether the observed in vitro physiologic antagonism represented partial antagonism or intracellular signaling dependent antagonism, digital imaging microscopy was used to assay intracellular Ca^2+ changes ([Ca^2+ ]i; […]) as a measure of Gq/Ca^2+ signaling and an In Cell Western approach for measuring phosphorylation of extracellular regulated kinase ½ (ICW of pERK ½; see FIG. 1D) as an assay for β-arrestin/MAPK signaling. […] It is concluded that Compound I-1 is a β-arrestin/MAPK biased PAR2 antagonist.

[3] = target: T1, protease-activated receptor-2 (PAR2); assay: In Cell Western of pERK 1/2 (β-arrestin/MAPK signaling); type: cell-based; details: 16HBE14o- cells; ICW of pERK 1/2
Procedure: as §1, §2

[4] = In vivo pharmacokinetics (plasma concentration by LC-MS/MS, non-compartmental analysis); details: mouse; for concentration at 24 h: read-out: Clast (24 h); for Cmax: read-out: Co/Cmax
Procedure: Compound I-1 was evaluated for its plasma stability and oral bioavailability. Mice were fasted overnight before dosing, with water provided ad libitum throughout the study. Three animals are dosed via gavage needle for oral administration at 10 mg/kg (10 mL/kg), via tail vein injection for intravenous administration at […], and via injection in the lower right quadrant of the abdomen for intraperitoneal injections at 10 mg/kg (10 mL/kg). Blood samples (25-30 μL per sample) were taken via saphenous or submandibular vein at 5, 15, 30 min, and 1, 2, 4, 6, 8, 24 h post dose and drug concentration determined by LC-MS/MS. Plasma concentrations were then graphed vs time and pharmacokinetic parameters (terminal half life, t1/2; initial plasma concentration, Co; area under the curve (AUC); volume of distribution at steady-state. Vss; total plasma clearance CLp; mean residence time, MRT; maximum plasma concentration Cmax; time to reach Cmax, tmax; and bioavailability, F) were determined using non-compartmental analysis.

[5] = system: stress-induced migraine-like pain; assay: Stress-induced migraine model, facial withdrawal response after SNP; type: in vivo, mouse; details: mice, restraint stress for 3 days, 14-day recovery, then SNP
Procedure: Migraine headaches are characterized by sensitivity of pain-sensing neurons in the dura mater to innocuous stimuli, e.g., the nitric oxide donor, sodium nitroprusside (SNP). Compound I-1 was evaluated in vivo using a mouse migraine model to assess whether it can be used to treat stress-induced migraine-like pain. FIG. 2 summarizes the results for this in vivo study.
Mice were subjected to restraint stress for 3 days (□ and ⋄ data points in FIG. 2) or left unrestrained (∘ and Δ data points in FIG. 2), resulting in a significant facial withdrawal response up to 3 days post-stress.

[6] = system: airway hyperresponsiveness induced by Alternaria alternata; assay: Alternaria alternata-induced asthma model, total airway resistance to methacholine (FLEXIVENT); type: in vivo, mouse; details: mice, Alternaria alternata intranasally three times over 8 days, with Compound I-1
Procedure: Alternaria alternata is a fungal allergen that activates PAR2 in the airways to promote inflammation and bronchoconstriction. Compound I-1 was evaluated in vivo to assess whether it can be used to treat airway hyperresponsiveness induced by Alternaria alternata. FIG. 3 summarizes the results for this in vivo study.
Alternaria alternata or saline (A data points in FIG. 3) were administered intranasally in a mouse asthma model three times over an 8 day period, in the presence (Q data points in FIG. 3) or absence (o data points in FIG. 3) of Compound I-1. Total airway resistance in response to increasing amounts of methacholine was monitored using the FLEXIVENT® (Scireq, Quebec, Canada) system.

## CC(C)C[C@@H]1C(=O)N2C(CN(CC3CCNCC3)C(=O)[C@@H]2CC(C)C)N1C(=O)c1ccco1 (stereo partly drawn) [Compound I-1, 4-(((2R,5S)-1-(furan-2-carbonyl)-2,5-diisobutyl-3,6-dioxohexahydroimidazolo [1,2-a]pyrazin-7(1H)-yl)methyl)piperidin-1-ium chloride]
[1]
  Cell Index response to PAR2 activation (antagonism): reduced the response
[2]
  Antagonism at the Gq/Ca2+ signaling pathway: not observed
[3]
  Antagonism of the β-arrestin/MAPK-signaling pathway: significant antagonism
[4]; IP, 10 mg/kG
  F: 89.8%
[4]; Oral, 10 mg/kG
  F: 84.7%
[4]; plasma, IP, 10 mg/kG
  AUC: 2670 ng·h/mL
  Tmax: 0.25 h
  half-life: 7.97 h
  concentration at 24 h: 12.9 ng/mL
  Cmax: 689 ng/mL
[4]; plasma, IV, 2 mg/kG
  AUC: 595 ng·h/mL
  half-life: 7.9 h
  concentration at 24 h: 1.15 ng/mL
  Cmax: 1330 ng/mL
[4]; plasma, IV, 2 mg/kG, read-out: CLp
  clearance: 56.6 mL/min/kg
[4]; plasma, IV, 2 mg/kG, read-out: Vss
  Vd: 8.29 L/kg
[4]; plasma, Oral, 10 mg/kG
  AUC: 2520 ng·h/mL
  Tmax: 0.5 h
  half-life: 7.45 h
  concentration at 24 h: 11.4 ng/mL
  Cmax: 632 ng/mL
[5]
  Facial withdrawal response after SNP: eliminated
[6]
  Total airway resistance in response to increasing methacholine: has promise as a therapeutic for reducing allergen-induced asthma attacks
